Test results from PMC10803265 (Nature Medicine, 2023).
“Also recorded” adds a separate entry of the source. Like-named read-outs stand apart in the source and are kept apart here.

Assays:
[1] = tested on: pERK, pS6, DUSP6, SPRY4 in KRAS G12C-positive cancer cell lines; design: method as in GDC-6036 Investigator's Brochure; conditions: ref GDC-6036 Investigator's Brochure; cited from earlier work
[2] = tested on: P-gp; design: method as in GDC-6036 Investigator's Brochure; conditions: in vitro; ref GDC-6036 Investigator's Brochure; cited from earlier work
[3] = cited from earlier work
[4] = tested on: cynomolgus monkeys; design: method as in GDC-6036 Investigator's Brochure; conditions: ref GDC-6036 Investigator's Brochure, cited from earlier work
[5] = tested on: KRAS G12C-positive CRC; conditions: single-agent divarasib at 400 mg, patients with CRC; cited from earlier work
[6] = Divarasib plasma pharmacokinetics, non-compartmental analysis; assay type: in vivo, human; conditions: divarasib 400 mg QD in combination with cetuximab (250 mg/m^2 QW), n=21; C1D8 or C2D1 AUC0-24 / C1D1 AUC0-24; mean ± s.d.
Protocol: Pharmacokinetic parameters were estimated using non-compartmental analysis of concentration–time data. Plasma samples were evaluated for divarasib using a validated liquid chromatography tandem mass spectrometry assay. […] A stable labeled internal standard was used. Pharmacokinetic non-compartmental analysis was performed with nominal time using Phoenix WinNonlin (Certara USA, version 8.3). Graphical visualization was done using R (version 4.2.0; R Foundation for Statistical Computing). Pharmacokinetic samples at steady state were collected before dose, and at 0.5, 1, 2, 3, 4 and 8 h after dose on cycle 1 day 8 (C1D8) or on cycle 2 day 1 (C2D1).

[7] = tested on: KRAS G12C; design: method as in earlier work; conditions: in vitro; cited from earlier work
[8] = tested on: xenograft models of KRAS G12C-positive lung tumors; design: method as in GDC-6036 Investigator's Brochure; conditions: nonclinical xenograft models of KRAS G12C-positive lung tumors; ref GDC-6036 Investigator's Brochure; cited from earlier work
[9] = tested on: BCRP; design: method as in GDC-6036 Investigator's Brochure; conditions: in vitro; ref GDC-6036 Investigator's Brochure; cited from earlier work
[10] = tested on: CYP3A4; design: method as in GDC-6036 Investigator's Brochure; conditions: human hepatocyte culture; ref GDC-6036 Investigator's Brochure; cited from earlier work
[11] = tested on: non-small cell lung cancer; conditions: cited from earlier work
[12] = tested on: patients with KRAS G12C-positive CRC
Protocol: Preliminary antitumor activity was determined by the investigator according to RECIST v1.1. […] PFS was defined as the time from first treatment to the first occurrence of disease progression or death from any cause during the study (whichever occurred first).

[13] = tested on: mice; design: method as in GDC-6036 Investigator's Brochure; conditions: gavage, attributed to chemical irritation by the higher concentration drug formulation, ref GDC-6036 Investigator's Brochure; cited from earlier work
[14] = tested on: KRAS G12C; conditions: single-agent divarasib; patients with detectable KRAS G12C ctDNA at C1D1; cited from earlier work
[15] = tested on: patients; conditions: cited from earlier work
[16] = divarasib 400 mg QD single agent, multiple doses (C1D8 or C2D1), N 76, mean ± s.d.
[17] = single-agent divarasib at 400 mg
[18] = in combination with cetuximab, 29 patients
[19] = AMG 510 all events, n=129, MRTX849 related only, n=17, ref Janne et al. 2019, Hong et al. 2020
[20] = Phase I trial, one patient, ref Hong et al. 2020

C=CC(=O)N1CCN(c2nc(OC[C@@H]3CCCN3C)nc3c(F)c(-c4nc(N)cc(C)c4C(F)(F)F)c(Cl)cc23)[C@@H](C)C1 [divarasib]
downstream MAPK pathway components (pERK, pS6) and KRAS target genes (DUSP6, SPRY4) [1]: inhibited
P-gp transporter inhibition [2]: inhibit
AUC0-24 [3, 16]: 9.13 ± 3.16 µg·h/mL
Cmax [3, 16]: 0.657 ± 0.185 µg/mL
tmax ([3]; divarasib 400 mg QD single agent, multiple doses (C1D8 or C2D1), N 76, median (range)): 2.0 (0.5-8.0) hr
RAUC0-24 ([3]; divarasib 400 mg QD single agent, n=63, mean ± s.d.): 1.4 ± 0.4 fold
mean half-life ([3]; single dose of divarasib 400 mg as a single agent): 17.6 ± 2.7 h
clinical signs ([4]; 4-week toxicology studies in cynomolgus monkeys): gastrointestinal intolerance with retching and vomiting
hepatic transaminases ([4]; cynomolgus monkeys): minimal to mild transaminase elevation
confirmed ORR [5]: 35.9%
median PFS [5]: 6.9 months
RAUC0-24 [6]: 1.2 ± 0.4 fold
potency compared to sotorasib and adagrasib [7]: 5 to 20 times
single-agent activity on tumor growth [8]: inhibits tumor growth
BCRP transporter inhibition [9]: inhibit
CYP3A4 mRNA induction [10]: induce messenger RNA (mRNA)
CYP3A4 protein levels induction [10]: not protein levels
confirmed ORR [11, 17]: 56.4%
median PFS [11, 17]: 13.1 months
diarrhea leading to divarasib dose reduction, patients ([12]; all grade 3): 10.3%
vomiting leading to divarasib dose reduction, patients ([12]; grade 1): 3.4%
TRAEs leading to divarasib dose interruptions, patients [12, 18]: 24.1%
TRAEs leading to divarasib dose modifications (interruption, reduction or withdrawal), patients [12, 18]: 34.5%
TRAEs leading to divarasib treatment withdrawals [12, 18]: no divarasib treatment withdrawals; also recorded: No patients withdrew
microscopic findings [13]: laryngeal necrosis
patients with KRAS G12C VAF decline to below 0.5% at C3D1 [14]: 45.7%

C=CC(=O)N1CCN(c2nc(=O)n(-c3c(C)ccnc3C(C)C)c3nc(-c4c(O)cccc4F)c(F)cc23)[C@@H](C)C1 [sotorasib]
all grade adverse events: diarrhea [15, 19]: 29.5%
all grade adverse events: nausea [15, 19]: 20.9%
all grade adverse events: vomiting [15, 19]: 17.8%
Grade 3 treatment-related increased AST, patients ([15]; Phase I trial, 3 out of 129, ref Hong et al. 2020): 2.3%
Grade 3 treatment-related increased ALT, patients ([15]; Phase I trial, 6 out of 129, ref Hong et al. 2020): 4.7%
any grade increased ALT, patients ([15]; Phase I trial, 15 out of 129, ref Hong et al. 2020): 11.6%
any grade increased AST, patients ([15]; Phase I trial, 17 out of 129, ref Hong et al. 2020): 13.2%
Grade 4 treatment-related elevation of ALT, patients [15, 20]: 0.8%
discontinued treatment because of Grade 3 treatment-related increase in ALT and AST levels, patients [15, 20]: 0.8%
ORR ([11]; phase 2 trial): 37%
ORR ([11]; phase 3 trial): 28%
